Earlier results in patent US11052042B2, “Aqueous suspensions of ciclesonide for nebulisation” (Covis Pharma B.V., priority 2003, dated 2021).

## CC(C)C(=O)OCC(=O)[C@@]12O[C@H](C3CCCCC3)O[C@@H]1C[C@H]1[C@@H]3CCC4=CC(=O)C=C[C@]4(C)[C@H]3[C@@H](O)C[C@@]12C [Ciclesonide, [11β,16α(R)]-16,17-[(Cyclohexylmethylen)bis(oxy)]-11-hydroxy-21-(2-methyl-1-oxopropoxy)pregna-1,4-dien-3,20-dion]
In vivo
  concentration of the drug in the lungs: high
  metabolism by liver oxidases: very high
  plasma half-life: low
Oral administration
  absorption after oral administration: only moderately absorbed
Relative to budesonide
  anti-inflammatory activity compared with budesonide: higher
  systemic activity compared with budesonide: three times lower
